Test results as given in patent US6413967B1, “Inhibition of novel calcium entry pathway in electrically non-excitable cells acting as an anti-proliferative therapy” (The University of Virginia Patents Foundation, priority 1995, dated 2002).

Tests used:
[1] = test system: [Ca^2+]i in MDA-468 cells; experiment: EGF receptor-stimulated Ca2+ influx in MDA-468 cells; format: cell-based, human; conditions: effect the same post- and pre- EGF receptor stimulation
Experimental: MDA468 cells are incubated with either indo-1 or the combination of fura-red/fluo-3 for 1 hour while still adherent in the maintenance flask in DMEM plus 5% fbs and 1 μg/ml insulin. Cells are removed by gentle scraping and washed three times in buffer A containing 1% charcoal stripped fbs (Nelson et al, Br. J. Cancer (1991) 63:933). The cells are then suspended to a final concentration of 1e6/ml and used as above in the SLM. For the human breast cancer cells, Ca^2+ entry is stimulated by the addition of 25 ng/ml EGF, rather than the antibody used above.

[2] = test system: Ca^2+ entry pathway in Jurkat cells; experiment: thapsigargin-stimulated Ca2+ entry measured with Ca2+-sensitive dyes (indo-1, fluo-3); format: cell-based, human
Experimental: Lymphocytes were suspended in culture medium at 37° C. for 1 h in the presence of 1 μM of the Ca^2+ indicator dye indo-1 /AM. Cells were washed twice in buffer A (140 mM NaCl, 3 mM KCl, 1 mM CaCl2, 1 mM MgCl2, 0.1% D-glucose, 1% FBS, 10 mM HEPES, pH 7.4) and were suspended at a final concentration of 1×10^6 cells/ml in buffer A. The excitation wavelength was 340 nm and emission was monitored at 398 nm in an SLM 8000 spectrofluorometer (SLM/Aminco, Urbana, Ill.), with the temperature maintained at 37° C. Data are plotted as relative fluorescence intensity at 398 nm as a measure of [Ca^2+]i. For FIG. 7, indo-1 emission was monitored at 398 nm and 480 nm and [Ca^2+]i was determined as described previously (Gray et al, J. Immunol (1987) 138:63; Haverstick et al, Mol. Biol. Cell (1993) 4:173).
Jurkat cells were loaded with indo-1/AM as described above. The excitation wavelength was 340 nm and emission was measured at 441 nm. The fluorescence of indo-1 at 441 nm is insensitive to changes in [Ca^2+]i (Sage et al, Biochem. J. (1989) 258:923) and is plotted as relative fluorescence intensity.
Because amiloride interferes with the fluorescence of indo-1 (Wacholtz et al, J. Immunol. (1992) 149:1912), fluo-3 was used to monitor [Ca^2+]i in the presence of amiloride. Jurkat cells were suspended in culture medium at 37° C. for 1 h in the presence of 1 μM fluo-3/AM and 1 mM probenecid to decrease dye leakage (DiVirgilio et al, Methods Cell Biol. (1989) 31:453). After two washes in buffer A, cells were suspended at a concentration of 1×10^6 cells/ml in buffer A with 1 mM probenecid and were maintained in a cuvette at 37° C. The excitation wavelength was 506 nm and the emission was monitored at 526 nm. Data are presented sa relative fluorescence intensity at 526 nm.

[3] = test system: MDA-468 human breast cancer cells; experiment: MDA-468 cell proliferation, tetrazolium dye; format: cell-based; conditions: human breast cancer cell proliferation, 48 hours
Experimental: The effect of various drugs on the proliferation of Jurkat T cells, MDA-468 human breast cancer cells and PC3 human prostate cancer cells was determined by incubating the cells with the indicated concentrations of drug for 48 hours. The number of viable cells remaining at the end of the incubation period was evaluated using the procedure outlined in Example 4.
Cells are plated in triplicate in a 96-well flat-bottomed plate (Jurkat: 5e4 cells/well in RPMI-1640 plus 5% fbs; MDA468: 2.5e4 per well in DMEM plus 5% fbs and 11 μg/ml insulin) in the absence (control) or presence of drug at 3, 10, 30, and 100 μM. An additional control of 100 μM drug in RPMI-1640 plus 5% fbs or DMEM plus 5% fbs and 11 μg/Ml insulin with no cells is included with each run to control for possible drug interactions with the dye. The plate is then placed in a 5% CO2 37° C. incubator for 44 to 48 hours. 20 μl of dye solution containing a tetrazolium dye (3-(4,5-dimethylthiazol-2-yl)-5-(3-carboxymethoxyphenyl)-2-(4-sulfophenyl)-2H-tetrazolium, Owen's reagent) plus coupling reagent (phenazine methosulfate) is added to each well, the plate is returned to the incubator, and the absorbance at 490 nm is read using an ELISA plate reader 3 to 4 h (Jurkat cells) or 2 to 3 h (MDA-468 cells) later. All data are presented as percent of control (no drug addition). With this protocol, it is possible to determine the effect of 5 drugs at 4 concentrations in a single 96-well plate as outlined below: […]

[4] = test system: NVG current in Jurkat cells; experiment: perforated patch clamp, non-voltage gated (NVG) current; format: cell-based, human; conditions: membrane potential −60 mV, 300 nM thapsigargin, amiloride 100 μM, MnCl2 300 μM, NiCl2 1 mM, W-7 30 μM, NDGA 10 μM
Experimental: All recordings were performed using the perforated patch method (Horn et al, J. Gen. Physiol. (1988) 92:145) of the gigaseal patch clamp technique (Hammil et al, Pflugers Arch (1981) 391:85) with microelectrodes of 5-10 megohm series resistance. In all solutions for voltage clamp, K^+ was replaced with Cs^+ to block outward K^+ currents (Fox et al, J. Physiol. (Lond.) (1987) 392:149). The bath solution contained (in mM): NaCl, 155; CsCl, 4.5; CaCl2, 2; MgCl2, 1; D-glucose, 5; HEPES, 10 (pH 7.4 with NaOH). The pipette solution contained (in mM): CsCl, 55; Cesium methanesulfonate, 70; CaCl2, 1; MgCl2, 7; HEPES, 10 (pH 7.3 with NaOH). Nystatin was made as a stock solution of 6 mg/100 μl DMSO, and 2 μl of the stock was added to 1 ml of the pipette solution for use. Both pipette and bath solutions were 290-300 mOsm. Experiments were performed on cells at room temperature using the Axopatch-1D patch clamp (Axon Instruments, Foster City, Calif.) after correction of junction potentials and leak subtraction. Records were low-pass filtered at 500 Hz, and the data were collected, stored and analyzed using the pClamp software program (Axon Instruments). For the non-voltage gated current traces, data is presented either as the tracing from a chart recorder or from the digital data in which the current was measured at 5 second intervals and plotted as individual points.

- IC50 ([2]; Homo sapiens, indo-1, n=10, read-out: IC50 for blockade of thapsigargin-stimulated Ca^2+ entry): 5 µM
SMILES: CC(Cc1ccc(O)c(O)c1)C(C)Cc1ccc(O)c(O)c1 (centres unmarked) [NDGA, 4,4′-(2,3-dimethyl-1,4-butanediyl)bis[1,2-benzenediol]]
- MDA [CA^2+]i [1]: ↓
- effect on thapsigargin-stimulated Ca^2+ entry ([2]; 300 nM thapsigargin, amiloride 100 μM (fluo-3), Ni^2+ 1 mM, NDGA 10 μM (indo-1)): inhibited Ca^2+ entry
- MDA PROLIF [3]: ↓
- effect on the thapsigargin-induced NVG current [4]: no effect
